# Laboratory results taken from ChEMBL document CHEMBL3885861, “Open TG-GATES”.
# Species: Rattus norvegicus
# Assay: Open TG-GATES - Regimen: Daily Repeat
# Type: toxicity, organism-based, Sprague-Dawley
# Parameters: regimen Daily Repeat, gender Male, age 6 weeks
# Conditions: in vivo, po, 250 mg/kg, route gavage, dose level High; for KIDNEY_L / KIDNEY_R / KIDNEY_TOTAL: tissue Kidney; for ALP / ALT / AST / BUN / CRE / Ca / Cl / DBIL / GLC / IP / K / LDH / Na / PL / RALB / TBIL / TC / TG / TP / gamma-GTP: tissue Plasma
smiles,measurement,setting,value
O=C1CN(/N=C/c2ccc(-c3ccc([N+](=O)[O-])cc3)o2)C(O)=N1 [DANTROLENE],APTT,"72 h, tissue Blood, time 3 day",18.5 s
same,Bas,"72 h, tissue Blood, time 3 day",0%
same,Eos,"72 h, tissue Blood, time 3 day",1%
same,Fbg,"72 h, tissue Blood, time 3 day",226.8 mg/dL
same,Hb,"72 h, tissue Blood, time 3 day",14.7 g/dL
same,Lym,"72 h, tissue Blood, time 3 day",85%
same,MCH,"72 h, tissue Blood, time 3 day",21.1 pg
same,MCHC,"72 h, tissue Blood, time 3 day",33.3%
same,MCV,"72 h, tissue Blood, time 3 day",63.2 fL
same,Mono,"72 h, tissue Blood, time 3 day",6.6%
same,Plat,"72 h, tissue Blood, time 3 day",124.6 x10_4/uL
same,RBC,"72 h, tissue Blood, time 3 day",696 x10_4/ul
same,Ret,"72 h, tissue Blood, time 3 day",2.8%
same,WBC,"72 h, tissue Blood, time 3 day",69 x10_2/uL
same,KIDNEY_L,"72 h, time 3 day",1 g
same,KIDNEY_R,"72 h, time 3 day",1 g
same,KIDNEY_TOTAL,"72 h, time 3 day",2 g
same,ALP,"72 h, time 3 day",630.6 IU/L
same,ALT,"72 h, time 3 day",29.6 IU/L
same,AST,"72 h, time 3 day",52.4 IU/L
same,BUN,"72 h, time 3 day",17.2 mg/dL
same,CRE,"72 h, time 3 day",0.5 mg/dL
same,Ca,"72 h, time 3 day",10.4 mg/dL
same,Cl,"72 h, time 3 day",103.8 meq/L
same,DBIL,"72 h, time 3 day",0.018 mg/dL
same,GLC,"72 h, time 3 day",174 mg/dL
same,IP,"72 h, time 3 day",8.2 mg/dL
same,K,"72 h, time 3 day",4.4 meq/L
same,LDH,"72 h, time 3 day",99.6 IU/L
same,Na,"72 h, time 3 day",139.2 meq/L
same,PL,"72 h, time 3 day",121.2 mg/dL
same,RALB,"72 h, time 3 day",3.7 g/dL
same,TBIL,"72 h, time 3 day",0.4 mg/dL
same,TC,"72 h, time 3 day",62.8 mg/dL
same,TG,"72 h, time 3 day",24 mg/dL
same,TP,"72 h, time 3 day",5.5 g/dL
same,gamma-GTP,"72 h, time 3 day",1 IU/L
same,TERMINAL_BW,"[…], time 7 day",231.2 g
same,TERMINAL_BW,"[…], time 14 day",269 g
same,TERMINAL_BW,"[…], time 28 day",326.2 g
same,APTT,"[…], tissue Blood, time 7 day",18.1 s
same,Bas,"[…], tissue Blood, time 7 day",0%
same,Eos,"[…], tissue Blood, time 7 day",0.8%
same,Fbg,"[…], tissue Blood, time 7 day",233 mg/dL
same,Hb,"[…], tissue Blood, time 7 day",14.4 g/dL
same,Lym,"[…], tissue Blood, time 7 day",81.4%
same,MCH,"[…], tissue Blood, time 7 day",21.2 pg
same,MCHC,"[…], tissue Blood, time 7 day",33.5%
same,MCV,"[…], tissue Blood, time 7 day",63.3 fL
same,Mono,"[…], tissue Blood, time 7 day",6%
same,Plat,"[…], tissue Blood, time 7 day",108.9 x10_4/uL
same,RBC,"[…], tissue Blood, time 7 day",680.2 x10_4/ul
same,Ret,"[…], tissue Blood, time 7 day",5.8%
same,WBC,"[…], tissue Blood, time 7 day",128.7 x10_2/uL
same,APTT,"[…], tissue Blood, time 14 day",19.3 s
same,Bas,"[…], tissue Blood, time 14 day",0%
same,Eos,"[…], tissue Blood, time 14 day",0.6%
same,Fbg,"[…], tissue Blood, time 14 day",233.6 mg/dL
same,Hb,"[…], tissue Blood, time 14 day",15 g/dL
same,Lym,"[…], tissue Blood, time 14 day",82.2%
same,MCH,"[…], tissue Blood, time 14 day",20.1 pg
same,MCHC,"[…], tissue Blood, time 14 day",33.6%
same,MCV,"[…], tissue Blood, time 14 day",59.7 fL
same,Mono,"[…], tissue Blood, time 14 day",6.4%
same,Plat,"[…], tissue Blood, time 14 day",119.9 x10_4/uL
same,RBC,"[…], tissue Blood, time 14 day",750.6 x10_4/ul
same,Ret,"[…], tissue Blood, time 14 day",5.6%
same,WBC,"[…], tissue Blood, time 14 day",115.6 x10_2/uL
same,APTT,"[…], tissue Blood, time 28 day",18.4 s
same,Bas,"[…], tissue Blood, time 28 day",0%
same,Eos,"[…], tissue Blood, time 28 day",1%
same,Fbg,"[…], tissue Blood, time 28 day",288.6 mg/dL
same,Hb,"[…], tissue Blood, time 28 day",15.3 g/dL
same,Ht,"[…], tissue Blood, time 28 day",45%
same,Lym,"[…], tissue Blood, time 28 day",80.4%
same,MCH,"[…], tissue Blood, time 28 day",19.3 pg
same,MCHC,"[…], tissue Blood, time 28 day",33.9%
same,MCV,"[…], tissue Blood, time 28 day",56.9 fL
same,Mono,"[…], tissue Blood, time 28 day",6.4%
same,Plat,"[…], tissue Blood, time 28 day",134.2 x10_4/uL
same,RBC,"[…], tissue Blood, time 28 day",791.2 x10_4/ul
same,Ret,"[…], tissue Blood, time 28 day",5.2%
same,WBC,"[…], tissue Blood, time 28 day",109.3 x10_2/uL
same,KIDNEY_L,"[…], time 7 day",1.1 g
same,KIDNEY_R,"[…], time 7 day",1.1 g
same,KIDNEY_TOTAL,"[…], time 7 day",2.2 g
same,KIDNEY_L,"[…], time 14 day",1.2 g
same,KIDNEY_R,"[…], time 14 day",1.2 g
same,KIDNEY_TOTAL,"[…], time 14 day",2.4 g
same,KIDNEY_L,"[…], time 28 day",1.7 g
same,KIDNEY_R,"[…], time 28 day",1.7 g
same,KIDNEY_TOTAL,"[…], time 28 day",3.3 g
same,ALP,"[…], time 7 day",838.2 IU/L
same,ALT,"[…], time 7 day",31.4 IU/L
same,AST,"[…], time 7 day",51.6 IU/L
same,BUN,"[…], time 7 day",16 mg/dL
same,CRE,"[…], time 7 day",0.6 mg/dL
same,Ca,"[…], time 7 day",10.8 mg/dL
same,Cl,"[…], time 7 day",107.2 meq/L
same,DBIL,"[…], time 7 day",0.01 mg/dL
same,GLC,"[…], time 7 day",183.8 mg/dL
same,IP,"[…], time 7 day",7.4 mg/dL
same,K,"[…], time 7 day",4.7 meq/L
same,LDH,"[…], time 7 day",102.6 IU/L
same,Na,"[…], time 7 day",140.2 meq/L
same,PL,"[…], time 7 day",160.2 mg/dL
same,RALB,"[…], time 7 day",3.6 g/dL
same,TBIL,"[…], time 7 day",0.4 mg/dL
same,TC,"[…], time 7 day",75.2 mg/dL
same,TG,"[…], time 7 day",98.4 mg/dL
same,TP,"[…], time 7 day",5.6 g/dL
same,gamma-GTP,"[…], time 7 day",1.4 IU/L
same,ALP,"[…], time 14 day",701.4 IU/L
same,ALT,"[…], time 14 day",26.4 IU/L
same,AST,"[…], time 14 day",55.8 IU/L
same,BUN,"[…], time 14 day",17.6 mg/dL
same,CRE,"[…], time 14 day",0.5 mg/dL
same,Ca,"[…], time 14 day",10.8 mg/dL
same,Cl,"[…], time 14 day",104.4 meq/L
same,DBIL,"[…], time 14 day",0.042 mg/dL
same,GLC,"[…], time 14 day",172 mg/dL
same,IP,"[…], time 14 day",7.9 mg/dL
same,K,"[…], time 14 day",4.2 meq/L
same,LDH,"[…], time 14 day",92 IU/L
same,Na,"[…], time 14 day",141.4 meq/L
same,PL,"[…], time 14 day",152.6 mg/dL
same,RALB,"[…], time 14 day",3.9 g/dL
same,TBIL,"[…], time 14 day",0.4 mg/dL
same,TC,"[…], time 14 day",64.4 mg/dL
same,TG,"[…], time 14 day",88 mg/dL
same,TP,"[…], time 14 day",5.8 g/dL
same,gamma-GTP,"[…], time 14 day",1.2 IU/L
same,ALP,"[…], time 28 day",453.2 IU/L
same,ALT,"[…], time 28 day",24.6 IU/L
same,AST,"[…], time 28 day",35.8 IU/L
same,BUN,"[…], time 28 day",24.8 mg/dL
same,CRE,"[…], time 28 day",0.7 mg/dL
same,Ca,"[…], time 28 day",10.9 mg/dL
same,Cl,"[…], time 28 day",106.6 meq/L
same,DBIL,"[…], time 28 day",0.04 mg/dL
same,GLC,"[…], time 28 day",175.6 mg/dL
same,IP,"[…], time 28 day",7.3 mg/dL
same,K,"[…], time 28 day",4.3 meq/L
same,LDH,"[…], time 28 day",96.2 IU/L
same,Na,"[…], time 28 day",141.2 meq/L
same,PL,"[…], time 28 day",174.6 mg/dL
same,RALB,"[…], time 28 day",3.9 g/dL
same,TBIL,"[…], time 28 day",0.3 mg/dL
same,TC,"[…], time 28 day",70.6 mg/dL
same,TG,"[…], time 28 day",152.2 mg/dL
same,TP,"[…], time 28 day",6.1 g/dL
same,gamma-GTP,"[…], time 28 day",2.4 IU/L
